# Results as given in ChEMBL document CHEMBL1137733, “Studies on the interaction of caffeine with bovine hemoglobin” (Eur J Med Chem, 2009).
# Molecular target: albumin (Homo sapiens, UniProt P02768)
# Test: Binding affinity to human plasma albumin by ultracentrifugation
# Format: cell-free
# Conditions: read-out: PB (converted)
# Sequence of albumin (P02768 whole entry): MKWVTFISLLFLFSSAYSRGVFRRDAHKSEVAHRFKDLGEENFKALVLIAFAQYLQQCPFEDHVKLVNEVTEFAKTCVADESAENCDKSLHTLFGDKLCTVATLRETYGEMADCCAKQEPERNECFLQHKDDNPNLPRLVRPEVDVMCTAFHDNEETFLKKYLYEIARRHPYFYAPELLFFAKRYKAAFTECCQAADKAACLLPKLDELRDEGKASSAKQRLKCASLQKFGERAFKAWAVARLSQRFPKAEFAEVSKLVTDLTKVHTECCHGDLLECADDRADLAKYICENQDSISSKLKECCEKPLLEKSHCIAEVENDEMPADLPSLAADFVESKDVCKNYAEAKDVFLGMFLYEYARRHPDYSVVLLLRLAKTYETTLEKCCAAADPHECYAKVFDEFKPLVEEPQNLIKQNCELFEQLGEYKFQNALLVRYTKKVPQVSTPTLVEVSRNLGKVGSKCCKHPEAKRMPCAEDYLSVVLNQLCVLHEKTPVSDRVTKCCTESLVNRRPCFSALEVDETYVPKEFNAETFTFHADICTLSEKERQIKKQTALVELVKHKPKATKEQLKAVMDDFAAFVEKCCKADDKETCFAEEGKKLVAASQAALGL
compound,measurement,value
Cn1c(=O)c2c(ncn2C)n(C)c1=O [CAFFEINE],fraction unbound,0.622
